Experimental findings from patent publication US20240000740A1, “OMEGA-3 POLYUNSATURATED FATTY ACIDS FOR TREATING / PREVENTING MALE INFERTILITY IN PREPUBERTAL CANDIDATES FOR GONADOTOXIC THERAPIES” (UNIVERSITA' DEGLI STUDI DI PERUGIA, priority 2020, published 2024) are described below.

What all share (type): cell-based, pig
The subject of assay [1] is GDNF. Briefly: Real-time PCR analysis of GDNF gene expression in SCs of prepubertal pigs. As to conditions: for gene expression of GDNF, real-time PCR: 48 hours plus 24 of recovery, compared to untreated SCs. On the procedure:
(§1) The animal studies were conducted in accordance with national guidelines (approved Italian animal protection certification A-3143-01) and guidelines of the Committee for the Care and Use of Animals of the University of Perugia. The experimental protocols were approved by the University of Perugia. The newborn prepubertal “Large White” pigs (Farm “Trequattrini”, S. Elena di Marsciano, PG), aged 7-15 days, were used as SC donors. The SCs were isolated in accordance with previously established methods, modified in our laboratory (Luca et al., 2015).
(§2) The SCs were maintained at 37° C. and 5% CO2 in HAMF-12 (Euroclone, MI, Italy) supplemented with 0.166 nM of retinoic acid (Sigma-Aldrich, St. Louis, MO, USA) and 5 mL/500 ml of ITS (Becton Dickinson cat. no. 354352, NJ, USA) in the absence (untreated) or presence of chemotherapeutic drugs for 48 hours plus 24 of recovery at the following concentrations: • Cisplatin 0.33 μM, 1.66 μM and 3.33 μM; • 4-hydroperoxycyclophosphamide (40HP) 50 and 100 μM; • Doxorubicin 0.1 μM, 0.2 μM and 1 μM; • cisplatin 3.33 μM plus EPA 100 μM; • cisplatin 3.33 μM plus 5-aza-2′-deoxy-cytidine (5 AZA) 1 μM.
Total RNA was isolated from the monolayers of untreated SCs and SCs treated with chemotherapeutic drugs (plus EPA or without EPA) by means of an RNA purification kit (Versagene RNA Cell Kit, Gentra Systems, Minneapolis, MN) and quantified by reading the optical density at 260 nm. Subsequently, 1 μg of total RNA was subjected to RT in a final volume of 20 μl by means of the Maxima First Strand cDNA Synthesis kit (Thermo Scientific, MA, USA). Real-time PCR was performed using 16 ng of cDNA, prepared from the RT reaction, and SYBR Green (Stratagene, Amsterdam, Netherlands). Real-time PCR was performed with an Mx3000P cycler (Stratagene) using FAM for detection and ROX as the reference dye. The level of mRNA for each sample was normalised with respect to the mRNA of β-actin and expressed as a change compared to the level of the untreated control cells.
For orientation: In qPCR the cycle at which signal appears reflects the starting amount.

The subject of assay [2] is 5-hydroxymethylcytosine (5hmC). Description: Immunofluorescence analysis of 5hmC in Sertoli cells (SCs) of prepubertal pigs. Particulars: 48 hours plus 24 of recovery, compared to untreated SCs. On the procedure:
as §1, §2
The untreated SCs and SCs treated with chemotherapeutic drugs (plus EPA or without EPA), were made to grow on round slides pre-treated with gelatine (Sigma-Aldrich). At the end of the treatment, the SCs were fixed for 30 min in 4% paraformaldehyde in phosphate buffer (PBS). Prior to immunolabelling, the cells were subjected to permeabilization (PBS, 0.2% Triton X) for 5 min at room temperature, blocked in 0.5% bovine serum albumin (BSA; Sigma-Aldrich, St. Louis, MO) in PBS for 10 min, and then exposed to the primary anti-5hmC antibody (Santa Cruz Biotechnology, 1:100 in PBS) overnight at 4° C. The cells were washed three times in PBS for 5 min and then exposed to the secondary Alexa-488 labelled antibody (1:500 in PBS). The cells were counterstained with 4′,6-diamidino-2-phenylindole (DAPI) for 1 min after treatment with RNase (10 mg/mL per 10 min.). The negative control for the immunolabelling consisted in skipping the labelling with the primary antibody and passing directly to the secondary antibody. The slides were then mounted with ProLong® Gold Antifade (ThermoFisher) and the images were acquired with an Olympus BX-41 equipped with Cell-F image processing software (Olympus).

The test system of assay [3] is GDNF. Briefly: Western blotting and densitometric analysis of GDNF protein expression in SCs of prepubertal pigs. As to conditions: 48 hours plus 24 of recovery, compared to untreated SCs. The protocol:
as §1, §2
The SCs were maintained at 37° C. and 5% CO2 in HAMF-12 (Euroclone, MI, Italia) supplemented with 0.166 nM of retinoic acid (Sigma-Aldrich, St. Louis, MO, USA) and 5 mL/500 ml of ITS (Becton Dickinson cat. no. 354352, NJ, USA) in the absence (untreated) or presence of cisplatin 0.5 and 1 μg/ml for 48 hours plus 24 of recovery plus 100 μM EPA.
The SCs were cultured at 37° C. and 5% CO2 in HAMF-12 (Euroclone, MI, Italy) supplemented with 0.166 nM of retinoic acid (Sigma-Aldrich, St. Louis, MO, USA) and 5 mL/500 ml of ITS (Becton Dickinson cat. no. 354352, NJ, USA) in the absence (untreated) or presence of cisplatin 0.5 and 1 μg/ml for 48 hours plus 24 of recovery and with the addition of 100 μM EPA. […] The images were acquired by means of the VersaDoc Imaging System (Bio-Rad Hercules, CA, USA), and the respective signals were quantified using Quantity One software (Bio-Rad) 2.8.
(In general: In western blotting, separated proteins are transferred to a membrane and probed.)

Setting [4] is: SCs treated with doxorubicin 0.1, 0.2 and 1 μM.
The mark [5] stands for this setting: SCs treated with 4-hydroperoxycyclophosphamide 50 and 100 μM.
The mark [6] stands for this setting: SCs treated with cisplatin 0.33, 1.66 and 3.33 μM.

Entries after “also recorded” stand apart in the source; their conditions may differ.

On to `Nc1ncn([C@H]2C[C@H](O)[C@@H](CO)O2)c(=O)n1` [AZA, 5-aza-2′-deoxycytidine], for which, in the assay with GDNF [1] (SCs treated with cisplatin 3.33 μM plus 5 AZA 1 μM, compared with EPA treatment), the “recovery in the expression of GDNF” value was “comparable to the one induced by treatment with the fatty acid EPA; also recorded: recovery comparable to that induced by treatment with the fatty acid”.

For `COc1cccc2c1C(=O)c1c(O)c3c(c(O)c1C2=O)C[C@@](O)(C(=O)CO)C[C@@H]3O[C@H]1C[C@H](N)[C@H](O)[C@H](C)O1` [doxorubicin], in assay [2] (setting [4]), the “5-hydroxymethylcytosine (5hmC), immunofluorescence analysis” value (“5-hydroxymethylcytosine (5hmC)” below) was “progressive reduction; also recorded: significant reduction”. For the same molecule, the “protein expression of GDNF, western blotting” value (“protein expression of GDNF” below) in the assay with GDNF [3] (setting [4]) is recorded as “significant reduction”. In addition, in the assay on GDNF [1] (setting [4]), the “gene expression of GDNF, real-time PCR” value is “significant reduction”.

`O=P1(N(CCCl)CCCl)NC(OO)CCO1` (stereo not drawn) [4-hydroperoxycyclophosphamide]: the “5-hydroxymethylcytosine (5hmC)” value is recorded as “significant reduction” in assay [2] (setting [5]); “progressive reduction” in assay [2] (SCs treated with 4-hydroperoxycyclophosphamide 50 and 100 μM, listed as 4OHP). In the assay on GDNF [3] (setting [5]), the “protein expression of GDNF” value was “significant reduction”. Moreover, the “gene expression of GDNF, real-time PCR” value in the assay on GDNF [1] (setting [5]) is “significant reduction”.

On to `N.N.[Cl][Pt][Cl]` [Cisplatin], for which the “5-hydroxymethylcytosine (5hmC)” value in assay [2] (setting [6]) is “significant reduction”; in assay [2] (SCs treated with cisplatin 0.33, 1.66 and 3.33 μM, listed as cisplatin), “progressive reduction”. In addition, in the assay with GDNF [3] (setting [6]), the “protein expression of GDNF” value is on record as “significant reduction”. Further, the “gene expression of GDNF, real-time PCR” value in the assay on GDNF [1] (setting [6]) is given as “significant reduction”.
